Data on 4 compounds can be found in patent US9757457B2, “Use of 2-deoxy-D-glucose to sensitize cancer cells to an agent that activates the extrinsic apoptotic pathway” (The Board of Trustees of the University of Illinois, priority 2013, dated 2017).

Series [1] has as its system COLO-205. Nature of the series: Tumor cell apoptosis in COLO-205 colon cancer cells (Annexin V flow cytometry). The settings on record: TRAIL 0-100 ng/mL, any dose, Annexin V staining. Type of series: cell-based, human. On the procedure:
(§1) While this makes TRAIL a promising anti-cancer therapy, there are numerous examples of both inherent and acquired resistance to TRAIL treatment. […] It was posited that this may have been due to either inherent or acquired TRAIL resistance. Therefore, a panel of well-established human colorectal tumor cell lines (HT-29, COLO-205 and SW-620) was analyzed to determine TRAIL sensitivity. […] Therefore, this human cell line was selected for use as a model for in vitro experiments.
(§2) To assess the effect of TRAIL on colon (HT29, COLO-205, SW-620), gastric (AGS) and pancreatic (PANC-1) cancer cell lines, cells were treated with increasing doses (0, 6.25, 12.5, 25, 50 and 100 ng/mL) of TRAIL in vitro.
For orientation: In flow cytometry, cells or beads pass a laser one at a time.

The test system of series [2] is SW-620. Nature of the series: Tumor cell apoptosis in SW-620 colon cancer cells (Annexin V flow cytometry; caspase-3 activation). Type of series: cell-based, human. The settings on record: TRAIL 0-100 ng/mL, any dose, Annexin V staining. On the procedure:
as §1, §2

The test system of series [3] is PANC-1 pancreatic cancer cell line. Nature of the series: Tumor cell apoptosis in PANC-1 pancreatic cancer cell line (Annexin V flow cytometry; caspase-3 activation). Type of series: cell-based. The note with it: TRAIL 0-100 ng/mL, any dose, Annexin V staining. Here is the method: as §2
Series [4] has as its system AGS gastric cancer cell line. As to the kind of experiment: Tumor cell apoptosis in AGS gastric cancer cell line (Annexin V flow cytometry; caspase-3 activation). The format is cell-based. The note with it: TRAIL 0-100 ng/mL, any dose, Annexin V staining. Here is the method: as §2
In series [5] the test system is human cancer patients with various tumor histologies. The note with it: phase I trial, cited from earlier work.
Series [6] concerns HT29 cells. Nature of the series: Tumor cell apoptosis in HT29 colon cancer cells (Annexin V flow cytometry; caspase-3 activation). Type of series: cell-based, human. The settings on record: for tumor cell apoptosis: HT29 cells, any dose, Annexin V staining, flow cytometry. On the procedure:
FIG. 2A, HT-29 cells were treated with a general caspase inhibitor (Q-VD-OPh) and simultaneously treated with the indicated compounds. Apoptosis was assessed by Annexin V/PI staining. FIG. 2B, HT-29 cells were stably transfected with CrmA, DN-FADD plasmid constructs (a dominant-negative variant of FAS-associated via death domain protein) or an empty vector. These cell lines, as well as untransfected cells, were then treated with the indicated compounds and apoptosis was assessed by Annexin V/PI staining. n=3, * indicates p<0.05, ** indicates p<0.01, ns indicates p>0.05.
as §1
To assess the effect of 2DG on HT29 cells, HT29 cells were treated with increasing doses (0-50 mM) of 2DG in vitro.
as §2
To determine the mechanism of apoptosis, HT-29 and SW-620 cells were treated every 6 hours with 2DG, TRAIL or 2DG and TRAIL. […] HT-29 cells were also fractionated into cytoplasmic and membrane-heavy fractions, with COXIV as a marker of the membrane heavy fraction and beta actin as a loading control.
(§3) TRAIL mediates its effects by binding to cell surface death receptors 4 and 5 (DR4, DR5). This initiates the extrinsic apoptosis pathway ultimately resulting in cell death. Therefore, it was determined whether 2DG primes tumor cells to TRAIL by altering DR expression in HT29 cells. […] By comparison, DR4 levels were unchanged by 2DG treatment. In addition, increased surface expression of DR5 correlated with TRAIL sensitivity over time.

Series [7] concerns human colon cancer cells.
The conditions of series [8]: clinical trials; cited from earlier work.
Series [9] has as its system DR4. As to the kind of experiment: Death receptor expression in HT29 cells after 2DG: DR4. The format is cell-based, human. The note with it: HT29 cells after treatment with 2DG. Here is the method: as §3
The subject of series [10] is DR5. Nature of the series: Death receptor expression in HT29 cells after 2DG: DR5. The format is cell-based, human. The note with it: HT29 cells after treatment with 2DG. Here is the method: as §3

On to “TRAIL: TNF-related apoptosis-inducing ligand; cytokine that causes apoptosis by binding death receptors DR4 and DR5”, for which the tumor cell apoptosis in series [1], in [2], in series [3], in series [4] and in series [6] (TRAIL 0-100 ng/mL) was ≤ 12% in each case. Besides, the tolerability entry in series [5] was “well-tolerated”. In series [5] (patients with colorectal cancer), the objective tumor response entry is “none of the patients with colorectal cancer had an objective tumor response”. The “TRAIL sensitivity (TRAIL-induced apoptosis)” value in series [6] (HT-29 cell line, maximal doses) was “resistance to TRAIL at even maximal doses”.
Consider `CC(=O)N[C@@H](CS)C(=O)O` [N-acetylcysteine], for which, in [7], the “effect on cytotoxicity of 2DG and oxaliplatin” value was “can abrogate this cytotoxicity”.
With `OCC1OC(O)CC(O)[C@@H]1O` (stereo in doubt) [2DG, 2-deoxy-D-glucose], in [8], the tolerability entry is “well-tolerated”. The DR4 levels entry in series [9] was “unchanged”. Besides, in series [10], the “DR5 mRNA level” value is reported as “upregulated” and the “DR5 total protein level” value is recorded as “upregulated”. The tumor cell apoptosis in [6] (2DG 0-50 mM) is ≤ 5%.
On to `CC(C)[C@H](NC(=O)c1ccc2ccccc2n1)C(=O)N[C@@H](CC(=O)O)C(=O)COc1c(F)cccc1F` [Q-VD-OPh], for which the “effect of caspase blockade on anti-tumor effect of 2DG and TRAIL” value in series [6] (HT-29, simultaneous treatment with 2DG and TRAIL, Annexin V/PI staining, FIG. 2A) was “inhibited the anti-tumor effect of the combination treatment”.
